The target of the assay is human recombinant H-PGDS (Homo sapiens, UniProt O60760). Description: Fluorescence intensity h-PGDS TBA enzyme assay. Format: biochemical. The settings on record: Examples up to 622 (and 3a, 3b).
Sequence of human recombinant H-PGDS (O60760 whole entry): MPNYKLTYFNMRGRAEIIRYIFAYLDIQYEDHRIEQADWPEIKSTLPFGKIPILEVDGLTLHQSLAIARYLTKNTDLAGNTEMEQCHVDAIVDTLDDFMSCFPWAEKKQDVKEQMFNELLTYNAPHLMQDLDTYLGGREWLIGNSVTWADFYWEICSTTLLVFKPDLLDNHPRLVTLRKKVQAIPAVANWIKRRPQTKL

In general, IC50 refers to the concentration that inhibits the measured activity by half. On to `CCN(C)c1ncc2c(n1)CCC(CN1CCC(NC(=O)c3ccc(-c4cccc(F)c4)nc3)CC1)C2` (stereo not drawn) [Example 398, N-[1-({2-[Ethyl(methyl)amino]-5,6,7,8-tetrahydroquinazolin-6-yl}methyl)piperidin-4-yl]-6-(3-fluorophenyl)nicotinamide], for which the IC50 turned out to be 8.56 nM.

As for `CC(C)(C)OC(=O)N1C[C@@H](O)[C@H](NC(=O)c2ccc(-c3cccc(F)c3)nc2)C1` (relative stereo) [Example 610, Trans-tert-Butyl 3-({[6-(3-fluorophenyl)pyridin-3-yl]carbonyl}amino)-4-hydroxypyrrolidine-1-carboxylate], the IC50 is 6.92 nM.

Turning to `O=C(NC1CCN(Cc2c[nH]c(=O)[nH]c2=O)CC1)c1ccc(-c2cccc(F)c2)nc1` [Example 254, N-{1-[(2,4-Dioxo-1234-tetrahydropyrimidin-5-yl)methyl]piperidin-4-yl}-6-(3-fluorophenyl)nicotinamide], the IC50 came to 1.68 nM.

Take `COc1cccc(-c2c(CN3CCC(NC(=O)c4ccc(-c5cccc(F)c5)nc4)CC3)cnn2C)c1` [Example 506, 6-(3-Fluorophenyl)-N-(1-{[5-(3-methoxyphenyl)-1-methyl-1H-pyrazol-4-yl]methyl}piperidin-4-yl)nicotinamide]: the IC50 worked out at 1.25 nM.

On to `O=C(NC1CCNCC1)c1ccc(-c2cccc(F)c2)nc1` [Example 36, 6-(3-Fluorophenyl)-N-(piperidin-4-yl)nicotinamide], for which the half-maximal inhibitory concentration (IC50) was 7.11 nM.

As to `CCCC(=O)N1CCC(NC(=O)c2ccc(-c3cccc(F)c3)nc2)CC1` [Example 31, N-(1-Butyrylpiperidin-4-yl)-6-(3-fluorophenyl)nicotinamide], the IC50 is 19.9 nM.

For the molecule `CC(C)c1nccnc1N1CCC(NC(=O)c2ccc(-c3cccc(F)c3)nc2)CC1` [Example 155, 6-(3-Fluorophenyl)-N-[1-(3-isopropylpyrazin-2-yl)piperidin-4-yl]nicotinamide], the IC50 was 2.3 nM.

`N#Cc1cnc(N2CCC(NC(=O)c3ccc(-c4cccc(F)c4)nc3)CC2)nc1N` [Example 126, N-[1-(4-Amino-5-cyanopyrimidin-2-yl)piperidin-4-yl]-6-(3-fluorophenyl)nicotinamide]: the 50% inhibitory concentration (IC50) was 0.656 nM.

As for `CCc1cn2nc(N3CC(NC(=O)c4ccc(-c5cccc(F)c5)nc4)C3)ccc2n1` [Example 603, N-[1-(2-Ethylimidazo[1,2-b]pyridazin-6-yl)azetidin-3-yl]-6-(3-fluorophenyl)nicotinamide], the IC50 turned out to be 2.29 nM.

In the case of `Cc1ccc(CN2CCC(NC(=O)c3ccc(-c4cccc(F)c4)nc3)CC2)c(F)c1F` [Example 318, N-[1-(2,3-Difluoro-4-methylbenzyl)piperidin-4-yl]-6-(3-fluorophenyl)nicotinamide], the IC50 amounted to 1.18 nM.

Turning to `Cn1nccc1-c1nc(CN2CCC(NC(=O)c3ccc(-c4cccc(F)c4)nc3)CC2)nn1C` [Example 480, 6-(3-Fluorophenyl)-N-(1-{[1-methyl-5-(1-methyl-1H-pyrazol-5-yl)-1H-1,2,4-triazol-3-yl]methyl}piperidin-4-yl)nicotinamide], the IC50 turned out to be 2.69 nM.

Regarding `O=C(NC1CCN(Cc2ccc3c(n2)NCCC3)CC1)c1ccc(-c2cccc(F)c2)nc1` [Example 465, 6-(3-Fluorophenyl)-N-[1-(5,6,7,8-tetrahydro-18-naphthyridin-2-ylmethyl)piperidin-4-yl]nicotinamide], the half-maximal inhibitory concentration (IC50) amounted to 0.881 nM.

`O=C(NC1CCN(c2ccc(Cl)cn2)CC1)c1ccc(-c2cccc(F)c2)nc1` [Example 137, N-[1-(5-Chloropyridin-2-yl)piperidin-4-yl]-6-(3-fluorophenyl)nicotinamide]: the IC50 came out at 1.41 nM.

Take `O=C(NC1CCN(Cc2ccccc2)CC1)c1ccc(-c2cccc(F)c2)nc1` [Example 29, N-(1-Benzylpiperidin-4-yl)-6-(3-fluorophenyl)nicotinamide]: the IC50 is 0.946 nM.

`O=C(NC1CCN(CC(F)(F)F)CC1)c1cnc(-c2cccc(F)c2)c(Cl)c1` [Example 620, 5-Chloro-6-(3-fluorophenyl)-N-[1-(2,2,2-trifluoroethyl)piperidin-4-yl]nicotinamide]: the IC50 turned out to be 3.66 nM.

Consider `O=C(NC1CCN(Cc2cccc(OCCO)c2)CC1)c1ccc(-c2cccc(F)c2)nc1` [Example 256, 6-(3-Fluorophenyl)-N-{1-[3-(2-hydroxyethoxy)benzyl]piperidin-4-yl}nicotinamide], for which the IC50 turned out to be 0.397 nM.

In the case of `O=C(NC1CCN(c2cnccn2)CC1)c1ccc(-c2cccc(F)c2)nc1` [Example 60, 6-(3-Fluorophenyl)-N-(1-pyrazin-2-ylpiperidin-4-yl)nicotinamide], the IC50 is 0.593 nM.

As to `O=C(NC1CCN(Cc2ccccc2)CC1)c1ccc(-c2ccc(F)cc2)nc1` [Example 13, N-(1-Benzylpiperidin-4-yl)-6-(4-fluorophenyl)nicotinamide], the IC50 was determined as 58 nM.

As for `CC(C)CN(C)C(=O)c1ccc(N2CCC(NC(=O)c3ccc(-c4cccc(F)c4)nc3)CC2)nc1` [Example 575, 6-[4-({[6-(3-Fluorophenyl)pyridin-3-yl]carbonyl}amino)piperidin-1-yl]-N-isobutyl-N-methylnicotinamide], the IC50 turned out to be 2.24 nM.

Consider `O=C(NC1CCN(Cc2ccn[nH]2)CC1)c1ccc(-c2cccc(F)c2)nc1` [Example 384, 6-(3-Fluorophenyl)-N-[1-(1H-pyrazol-5-ylmethyl)piperidin-4-yl]nicotinamide], for which the IC50 was 0.959 nM.

For `CS(=O)(=O)c1ccc(CN2CCC(NC(=O)c3ccc(-c4cccc(F)c4)nc3)CC2)cc1` [Example 259, 6-(3-Fluorophenyl)-N-{1-[4-(methylsulfonyl)benzyl]piperidin-4-yl}nicotinamide], the IC50 turned out to be 1.68 nM.

Consider `CCOc1ccc(CN2CCC(NC(=O)c3ccc(-c4cccc(F)c4)nc3)CC2)cc1` [Example 234, N-[1-(4-Ethoxybenzyl)piperidin-4-yl]-6-(3-fluorophenyl)nicotinamide], for which the concentration for half-maximal inhibition (IC50) was 1.65 nM.

Consider `CCOC(=O)c1cccnc1N1CCC(NC(=O)c2ccc(-c3cccc(F)c3)nc2)CC1` [Example 66, Ethyl 2-[4-({[6-(3-fluorophenyl)pyridin-3-yl]carbonyl}amino)piperidin-1-yl]nicotinate], for which the IC50 turned out to be 0.627 nM.

With `Cc1csc2c(N3CCC(NC(=O)c4ccc(-c5cccc(F)c5)nc4)CC3)ncnc12` [Example 71, 6-(3-Fluorophenyl)-N-[1-(7-methylthieno[3,2-d]pyrimidin-4-yl)piperidin-4-yl]nicotinamide], the IC50 was 2.18 nM.

For the molecule `CCN1CCCC1CNC(=O)c1ccc(N2CCC(NC(=O)c3ccc(-c4cccc(F)c4)nc3)CC2)nn1` (stereo not drawn) [Example 81, N-[(1-Ethylpyrrolidin-2-yl)methyl]-6-[4-({[6-(3-fluorophenyl)pyridin-3-yl]carbonyl}amino)piperidin-1-yl]pyridazine-3-carboxamide], the IC50 was 0.947 nM.

With `CC(C)(O)c1cc(CN2CCC(NC(=O)c3ccc(-c4cccc(F)c4)nc3)CC2)ccn1` [Example 464, 6-(3-Fluorophenyl)-N-(1-{[2-(1-hydroxy-1-methylethyl)pyridin-4-yl]methyl}piperidin-4-yl)nicotinamide], the IC50 is 1.02 nM.

As for “N-[1-(2-Chloro-2-fluoro-5-methoxybenzyl)piperidin-4- yl]-6-(3-fluorophenyl)nicotinamide [Example 468]”, the IC50 stood at 0.375 nM.

Values taken from patent US7902373B2 (Pfizer Inc, priority 2006, dated 2011).
